From patent publication US20040162467A1, “Non-invasive transudate extraction” (priority 2001, published 2004)
Where “and” joins values, the source holds several entries; their conditions need not be identical. Identical values can stand only once.

Key:
[1] = Trial of FIG. 1 device: blood levels versus ultrasound-extracted transudate levels
Text: The device of shown in FIG. 1 has been trialed with four individuals. The device was assembled as set out above and was linked to a testosterone and ethanol detectors comprising a HPLC system and Electrochemical detector and a mass spectroscopy system. […] In turn, each subject placed their forearm on the device. The ultrasound generator was set to produce continuous pulsing, collimating ultrasonic energy at 1 MHz and 0.5 W/cm^2. The surface of delivery at the test site was approximately 5 cm^2. Collections were made from the skin surface of the forearm over a period of one minute. Blood samples were drawn simultaneously and analysed for comparison to the ultrasound samples.

[2] = Concentrations in transdermal exudate collected by different formats from sheep, versus serum; details: sheep
Description: Sodium lauryl sulfate (40%) and either a commercial ultrasound conductive gel (Aquasonic, Parker Lab., NJ 07004, USA) or a 10% ethanol gel (the two gels were alternated in use) are employed. These gels are designated SLS-UG and SLS-EG respectively herein. Collected SLS-UG and SLS-EG are assayed as for blood. Saliva was divided into two samples. The first sample is stored at −20° C. and assayed as for blood. The second sample is assayed at the time of experimentation using the apparatus and immunosensors described above.
Ten of these animals were used to develop the transdermal exudate collection technique. These 10 animals were penned as above, and a catheter inserted into the jugular vein using known techniques in the art. A mixture of sodium lauryl sulfate and either SLS-UG or SLS-EG was positioned onto the shaved area on the back of each animal. […] At the end of the hour, the remaining mix on the back was collected. The entire procedure was repeated three times. This mix was subject to assay (see below) for hormones and glucose content.
On the following day, one of the two gel mixes were rubbed on and, after 10 min, ultrasound (20 kHz, 10 W/cm^2, pulsed 5 s on/5 s off using an ITO Physiotherapy and rehabilitation unit, Tokyo 176-8605, Japan) applied for 1 min directly onto the mix. Ten minutes later, the mix was again collected and measured. This was then repeated with 2 min of the ultrasound application, and on a following day, the entire procedure repeated using the alternative gel mix on the shaved patch on the animal. Times greater than 2 min were not attempted due to potential risk of skin damage. Blood samples were collected at the time of ultrasound application and again at the time when the gel mix was also collected. The entire ultrasound procedure was then repeated on subsequent days with the addition of an application of a 9V electric field either side of the ultrasound head (in contact with skin).
On a separate day, in a further repeat of the above procedure; the collecting head (50) was positioned onto the ultrasound device. The ultrasound device was modified to ensure good coupling for use with the collecting head and delivery of needed parameters to the skin. The output of the device was reset to achieve the same energy and pulse delivery to the skin's surface as when the collecting head was not present, and the ultrasound device had been placed directly in contact with the gels (as described above). Three fluid flow rates into the collection chamber of the head were compared: 150, 300 and 600 μl/min. The effluent fluid was then assayed. On a final day, this was then repeated with the immunosensors positioned in the exit line from the chamber, with immunosensor measurement of the hormones made as has been described above.

[3] = Flow rate effect on analyte extraction (electrosonophoresis exudate versus serum); type: in vivo; details: for Sonified off membrane*: membrane sonicated in water bath
Description: Using the methods above for transudate and serum extraction, an experiment was conducted to determine the effect of flow rates through the head on testosterone recovery. Table 5 sets out the results of the experiment.
In a series of experiments (15 measures per flow rate) flow rates were compared for collection of testosterone in exudate from electrosonophoresis compared to that concurrently measured in serum of the subjects.

[4] = SLS + 10% E + US 1 min + 9 V + Collection Head

Q: For `C[C@]12CC[C@H]3[C@@H](CCC4=CC(=O)CC[C@@]43C)[C@@H]1CC[C@@H]2O` [Testosterone, testosterone], which “Blood level 1#” value ([1]; day 1, 30 min following 1 hour training (aerobic) and oral 10% ethanol, one value per subject (1-4)) is on record?
A: 3 ng/mL and 7 ng/mL and 9 ng/mL and 4 ng/mL

Q: What about the “Ultrasound level 1#” value ([1]; day 1, 30 min following 1 hour training and oral 10% ethanol, forearm, 1 MHz, 0.5 W/cm^2, 1 min, one value per subject) of the same molecule?
A: 2 ng/ml (2×) and 4 ng/ml and 7 ng/ml

Q: What about the “Ultrasound level 2*” value ([1]; repeat on day 3, forearm, 1 MHz, 0.5 W/cm^2, 1 min, one value per subject) of the same molecule?
A: 4 ng/ml (2×) and 6 ng/ml and 3 ng/ml

Q: And the “Blood level 2*” value ([1]; repeat on day 3, one value per subject)?
A: 5 ng/mL and 10 ng/mL and 8 ng/mL and 6 ng/mL

Q: What about the Serum ([2]; SLS + 10% E) of the same molecule?
A: 0.9 ± 0.4 ng/mL

Q: And the Exudate ([2]; SLS + 10% E + US 1 min)?
A: 0.02 ± 0.005 ng/mL

Q: What about the “Relative recovery (exudate vs serum)” value ([2]; SLS + 10% E + US 1 min) of the same molecule?
A: (2%)

Q: What about the Serum ([2]; SLS + 10% E + US 1 min) of the same molecule?
A: 0.9 ± 0.3 ng/mL

Q: What about the Exudate ([2]; SLS + 10% E + US 1 min + 9 V) of the same molecule?
A: 0.05 ± 0.02 ng/mL

Q: What about the “Relative recovery (exudate vs serum)” value ([2]; SLS + 10% E + US 1 min + 9 V) of the same molecule?
A: (7%)

Q: What about the Serum ([2]; SLS + 10% E + US 1 min + 9 V) of the same molecule?
A: 0.7 ± 0.6 ng/mL

Q: What about the Exudate [2, 4] of the same molecule?
A: 0.11 ± 0.06 ng/mL

Q: And the “Relative recovery (exudate vs serum)” value [2, 4]?
A: (14%)

Q: What about the Serum [2, 4] of the same molecule?
A: 0.8 ± 0.6 ng/mL

Q: And the Serum ([2]; SLS + UG)?
A: 1.1 ± 0.6 ng/mL

Q: What about the “Recovery as % of serum levels” value ([2]; gel mix with addition of ultrasound application) of the same molecule?
A: 2%

Q: And the Collected in exudate ([3]; flow rate 50 μl/min)?
A: 0.05 to 0.09 ng/mL

Q: What about the “Serum level at same time” value ([3]; flow rate 50 μl/min) of the same molecule?
A: 1.9 to 2.5 ng/mL

Q: And the “Sonified off membrane*” value ([3]; flow rate 50 μl/min)?
A: 0.1 to 0.2 ng/mL

Q: And the Collected in exudate ([3]; flow rate 100 μl/min)?
A: 0.15 to 0.20 ng/mL

Q: And the “Serum level at same time” value ([3]; flow rate 100 μl/min)?
A: 2.0 to 2.4 ng/mL

Q: What about the “Sonified off membrane*” value ([3]; flow rate 100 μl/min) of the same molecule?
A: 0.05 to 0.07 ng/mL

Q: What about the Collected in exudate ([3]; flow rate 150 μl/min) of the same molecule?
A: 0.2 to 0.3 ng/mL

Q: What about the “Serum level at same time” value ([3]; flow rate 150 μl/min) of the same molecule?
A: 1.9 to 2.6 ng/mL

Q: And the “Sonified off membrane*” value ([3]; flow rate 150 μl/min)?
A: 0.01 to 0.02 ng/mL

Q: And the Collected in exudate ([3]; flow rate 200 μl/min)?
A: 0.21 to 0.30 ng/mL

Q: What about the “Serum level at same time” value ([3]; flow rate 200 μl/min) of the same molecule?
A: 2.0 to 3.01 ng/mL

Q: What about the “Sonified off membrane*” value ([3]; flow rate 200 μl/min) of the same molecule?
A: 0.01 to 0.02 ng/mL

Q: What about the Collected in exudate ([3]; flow rate 300 μl/min) of the same molecule?
A: 0.12 to 0.17 ng/mL

Q: What about the “Serum level at same time” value ([3]; flow rate 300 μl/min) of the same molecule?
A: 1.9 to 2.8 ng/mL

Q: What about the “Sonified off membrane*” value ([3]; flow rate 300 μl/min) of the same molecule?
A: 0.08 to 0.12 ng/mL
